Measured values from patent US20240041042A1, “1-(PYRIDYL)-5-AZINYLPYRAZOLE DERIVATIVES, AND THEIR USE FOR CONTROL OF UNDESIRED PLANT GROWTH” (Bayer Aktiengesellschaft, priority 2020, published 2024).
Read-outs that look alike come from different tables or passages of the source.

Columns and labels:
Format in all cases: in vivo
Avena fatua (AVEFA) [1] = assay: Pre-emergence herbicidal action against AVEFA; conditions: 320 g/ha, visual scoring after about 3 weeks vs untreated controls
Method in brief: (§1)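 Pre-emergence soil-surface spray of compound, formulated as wettable powder or emulsion concentrate, in aqueous suspension or emulsion with 0.5% additive (600 l/ha; rate 320 g/ha or less). Activity rated visually after roughly 3 weeks in the greenhouse as a percentage of untreated controls, 0% meaning no difference.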

[2] = tested on: Amaranthus retroflexus (AMARE); assay: Post-emergence herbicidal action against AMARE
Method in brief: (§2)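 Post-emergence greenhouse spray, one-leaf stage, 600 l/ha water plus 0.5% additive; WP or EC formulations; application rates 320 g/ha or lower. Visual % damage vs untreated controls at ~3 weeks.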

Lolium rigidum (LOLRI) [3] = assay: Post-emergence herbicidal action against LOLRI
Method in brief: as §2

[4] = tested on: Alopecurus myosuroides (ALOMY); assay: Pre-emergence herbicidal action against ALOMY; conditions: scored visually after about 3 weeks, 100% = plants have died
Method in brief: as §1

[5] = tested on: Echinochloa crus-galli (ECHCG); assay: Pre-emergence herbicidal action against ECHCG; conditions: dosage 320 g/ha
Method in brief: as §1

Viola tricolor (VIOTR) [6] = assay: Pre-emergence herbicidal action against VIOTR
Method in brief: as §1

[7] = tested on: Polygonum convolvulus (POLCO); assay: Pre-emergence herbicidal action against POLCO
Method in brief: as §1

[8] = tested on: Polygonum convolvulus (POLCO); assay: Post-emergence herbicidal action against POLCO
Method in brief: as §2

Viola tricolor (VIOTR) [9] = assay: Post-emergence herbicidal action against VIOTR
Method in brief: as §2

Lolium rigidum (LOLRI) [10] = assay: Pre-emergence herbicidal action against LOLRI
Method in brief: as §1

Oryza sativa (ORYSA) = conditions: crop plant compatibility
Method in brief: (§3)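 Percent effect on the crop was judged by eye against untreated controls, where 0% means like control and 100% means dead plants. Plants had been sprayed post-emergence at the one-leaf stage and then kept under optimum greenhouse conditions for about 3 weeks.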

Setaria viridis (SETVI) [11] = assay: Pre-emergence herbicidal action against SETVI
Method in brief: as §1

[12] = tested on: Matricaria inodora (MATIN); assay: Pre-emergence herbicidal action against MATIN; conditions: dosage 320 g/ha
Method in brief: as §1

Setaria viridis (SETVI) [13] = assay: Post-emergence herbicidal action against SETVI
Method in brief: as §2

[14] = tested on: Alopecurus myosuroides (ALOMY); assay: Post-emergence herbicidal action against ALOMY; conditions: visual rating about 3 weeks after treatment vs untreated controls (100% = plants have died, 0% = like control plants)
Method in brief: as §2

[15] = tested on: Amaranthus retroflexus (AMARE); assay: Pre-emergence herbicidal action against AMARE; conditions: visual scoring after about 3 weeks vs untreated controls
Method in brief: as §1

[16] = tested on: Abutilon theophrasti (ABUTH); assay: Post-emergence herbicidal action against ABUTH; conditions: visual rating about 3 weeks after treatment vs untreated controls (100% = plants have died, 0% = like control plants)
Method in brief: as §2

Avena fatua (AVEFA) [17] = assay: Post-emergence herbicidal action against AVEFA; conditions: visual rating about 3 weeks after treatment
Method in brief: as §2

[18] = tested on: Echinochloa crus-galli (ECHCG); assay: Post-emergence herbicidal action against ECHCG
Method in brief: as §2

[19] = tested on: Verconica persica (VERPE); assay: Pre-emergence herbicidal action against VERPE
Method in brief: as §1

Zea mays (ZEAMX) [20] = conditions: pre-emergence, 80 g/ha, crop plant compatibility, in comparison to untreated controls
Source text: Seeds of monocotyledonous and dicotyledonous weed plants and crop plants are placed in plastic or organic planting pots and covered with soil. The compounds of the invention, formulated in the form of wettable powders (WP) or as emulsion concentrates (EC), are then applied to the surface of the covering soil as aqueous suspension or emulsion with addition of 0.5% additive at a water application rate equivalent to 600 l/ha. After the treatment, the pots are placed in a greenhouse and kept under good growth conditions for the trial plants. After about 3 weeks, the effect of the preparations is scored visually in comparison with untreated controls as percentages. For example, 100% activity=the plants have died, 0% activity=like control plants.
The observed effects on selected crop plants are reported here in comparison to the untreated controls (values in %). The appendices “a” “b” and “c” give differentiation by dosage used with otherwise the same crop plants tested.

[21] = tested on: Verconica persica (VERPE); assay: Post-emergence herbicidal action against VERPE
Method in brief: as §2

Zea mays (ZEAMX) [22] = conditions: 20 g/ha, ZEAMX, effect in comparison to untreated controls
Method in brief: as §3

[23] = tested on: Digitaria sanguinalis (DIGSA); assay: Post-emergence herbicidal action against DIGSA; conditions: visual rating about 3 weeks after treatment
Method in brief: as §2

[24] = tested on: Triticum aestivum (TRZAS); conditions: crop plant compatibility, 20 g/ha, effect vs untreated controls
Method in brief: as §3

[25] = tested on: Matricaria inodora (MATIN); assay: Post-emergence herbicidal action against MATIN
Method in brief: as §2

[26] = tested on: Pharbitis purpurea (PHBPU); assay: Post-emergence herbicidal action against PHBPU
Method in brief: as §2

[27] = 80 g/ha, visual rating about 3 weeks after treatment vs untreated controls (100% = plants have died, 0% = like control plants)
[28] = 320 g/ha, visual rating about 3 weeks after treatment
[29] = 20 g/ha, effect vs untreated controls

SMILES | Pre-emergence action against AVEFA in % (Avena fatua (AVEFA) [1]) [%] | Post-emergence action against AMARE in % [2, 27] [%] | Post-emergence action against AMARE in % [2, 28] [%] | Post-emergence action against LOLRI in % (Lolium rigidum (LOLRI) [3]; dosage 320 g/ha) [%] | Pre-emergence action against ALOMY ([4]; 320 g/ha) [%] | Pre-emergence action against ECHCG in % [5] [%] | Pre-emergence action against VIOTR in % (Viola tricolor (VIOTR) [6]; 320 g/ha, Viola tricolor) [%] | Pre-emergence action against VIOTR in % (Viola tricolor (VIOTR) [6]; dosage 80 g/ha) [%] | Pre-emergence action against POLCO in % ([7]; dosage 320 g/ha) [%] | Post-emergence action against POLCO in % ([8]; dosage 80 g/ha) [%] | Post-emergence action against POLCO in % ([8]; dosage 320 g/ha) [%] | Post-emergence action against VIOTR in % (Viola tricolor (VIOTR) [9]; 80 g/ha) [%] | Post-emergence action against VIOTR in % (Viola tricolor (VIOTR) [9]; 320 g/ha) [%] | Pre-emergence action against LOLRI in % (Lolium rigidum (LOLRI) [10]; dosage 320 g/ha) [%] | Pre-emergence action against SETVI in % (Setaria viridis (SETVI) [11]; dosage 320 g/ha) [%] | Pre-emergence action against MATIN in % [12] [%] | Post-emergence action against SETVI in % (Setaria viridis (SETVI) [13]; dosage 320 g/ha) [%] | Post-emergence action against ALOMY in % ([14]; 80 g/ha) [%] | Post-emergence action against ECHCG in % ([18]; dosage 80 g/ha) [%] | Post-emergence action against VERPE in % ([21]; dosage 80 g/ha) [%] | further results
CCOC(=O)[C@@H](C)Oc1nn(-c2ncccc2Cl)c(-c2ccc(F)nc2)c1Br [Example I-27] | 100 | 90 | 90 | 90 | 100 | 100 | 100 | 100 | 100 | 80 | 80 | 80 | 80 | 100 | 100 | 80 | 90 | 80 | 90 | 80 | Post-emergence action against LOLRI in % (Lolium rigidum (LOLRI) [3]; dosage 80 g/ha): 90%; Pre-emergence action against POLCO in % ([7]; dosage 80 g/ha): 90%; Pre-emergence action against LOLRI in % (Lolium rigidum (LOLRI) [10]; dosage 80 g/ha): 100%; Post-emergence action against ORYSA in % (Oryza sativa (ORYSA); 80 g/ha, effect in comparison to untreated controls): 0%; Post-emergence action against ALOMY in % ([14]; 320 g/ha): 100%; Pre-emergence action against AMARE in % ([15]; 80 g/ha): 90%; Pre-emergence action against AMARE in % ([15]; 320 g/ha): 100%; Post-emergence action against ABUTH in % ([16]; 320 g/ha): 90%; Post-emergence action against AVEFA in % (Avena fatua (AVEFA) [17]; 80 g/ha): 100%; Post-emergence action against AVEFA in % (Avena fatua (AVEFA) [17]; 320 g/ha): 100%; Post-emergence action against ECHCG in % ([18]; dosage 320 g/ha): 90%; Pre-emergence action against VERPE in % ([19]; dosage 80 g/ha): 80%; Pre-emergence action against VERPE in % ([19]; dosage 320 g/ha): 100%; Pre-emergence action against ZEAMX in % (Zea mays (ZEAMX) [20]): 20%; Post-emergence action against VERPE in % ([21]; 320 g/ha, VERPE): 90%
CC(C)N(C)S(=O)(=O)NC(=O)COc1nn(-c2ncccc2F)c(-c2ccc(F)nc2)c1Br [Example I-53] | 100 | 90 |  |  | 100 | 80 | 100 | 90 | 90 |  |  |  |  | 100 | 100 | 90 |  | 90 | 80 | 80 | Pre-emergence action against ALOMY ([4]; 80 g/ha): 80%; Post-emergence action against ORYSA in % (Oryza sativa (ORYSA); [29]): 10%; Post-emergence action against ZEAMX in % (crop plant compatibility) (Zea mays (ZEAMX) [22]): 10%; Pre-emergence action against SETVI in % (Setaria viridis (SETVI) [11]; dosage 80 g/ha): 90%; Post-emergence action against SETVI in % (Setaria viridis (SETVI) [13]; dosage 80 g/ha): 80%; Pre-emergence action against AMARE in % ([15]; 80 g/ha): 90%; Pre-emergence action against AMARE in % ([15]; 320 g/ha): 100%; Pre-emergence action against VERPE in % ([19]; dosage 320 g/ha): 100%; Pre-emergence action against ZEAMX in % (Zea mays (ZEAMX) [20]): 20%
CCOC(=O)COc1nn(-c2ncccc2C)c(-c2cncc(F)c2)c1Cl [Example I-181] |  | 80 | 90 | 80 |  |  |  |  |  | 80 | 80 | 90 | 90 |  |  |  | 90 | 80 | 90 | 90 | Post-emergence action against DIGSA in % ([23]; 80 g/ha): 90%; Post-emergence action against DIGSA in % ([23]; 320 g/ha): 90%; Post-emergence action against TRZAS in % [24]: 20%; Post-emergence action against ORYSA in % (Oryza sativa (ORYSA); [29]): 0%; Post-emergence action against ZEAMX in % (crop plant compatibility) (Zea mays (ZEAMX) [22]): 20%; Post-emergence action against SETVI in % (Setaria viridis (SETVI) [13]; dosage 80 g/ha): 80%; Post-emergence action against MATIN in % ([25]; dosage 80 g/ha): 80%; Post-emergence action against MATIN in % ([25]; dosage 320 g/ha): 80%; Post-emergence action against ALOMY in % ([14]; 320 g/ha): 90%; Post-emergence action against ABUTH in % ([16]; 80 g/ha): 80%; Post-emergence action against ABUTH in % ([16]; 320 g/ha): 80%; Post-emergence action against AVEFA in % (Avena fatua (AVEFA) [17]; 320 g/ha): 90%; Post-emergence action against ECHCG in % ([18]; dosage 320 g/ha): 100%; Post-emergence action against PHBPU in % ([26]; dosage 80 g/ha): 90%; Post-emergence action against PHBPU in % ([26]; dosage 320 g/ha): 100%; Post-emergence action against VERPE in % ([21]; 320 g/ha, VERPE): 90%
